Results taken from article PMC8000395, “Effective Small Molecule Antibacterials from a Novel Anti-Protein Secretion Screen” (Microorganisms, 2021).
Where two headings read alike, the source gives them in different places.

Experiments:
Format in all cases: cell-based
[1] = tested on: Klebsiella pneumoniae ATCC 27799; assay: Antimicrobial activity test (growth, OD600); details: ATCC27799, read-out: Bacterial Viability (IC50)
Enterobacter cloacae = assay: Antimicrobial activity test (growth, OD600); details: read-out: Bacterial Viability (IC50)
E. coli BW25113 = assay: Antimicrobial activity test (growth, OD600); details: Escherichia coli, 20 h, 37 °C, read-out: Bacterial Viability IC50, E. coli BW25113
E. coli BL21 = assay: Antimicrobial activity test (growth, OD600); details: Escherichia coli, BL21, BL21; 20 h, 37 °C, OD600; read-out: Bacterial Viability IC50, E. coli BL21
Gram-positive bacteria = assay: Antimicrobial activity test, summary over Gram-positive bacteria
Proteus vulgaris = assay: Antimicrobial activity test (growth, OD600); details: read-out: Bacterial Viability (IC50)
Streptococcus pneumoniae = assay: Antimicrobial activity test (growth, OD600); details: read-out: Bacterial Viability (IC50)
[2] = tested on: Staphylococcus aureus ATC6538P; assay: Antimicrobial activity test (growth, OD600); details: Staphylococcus aureus ATC6538P; read-out: Bacterial Viability (IC50)
[3] = tested on: PhoA secretion in E. coli MC4100; assay: microbe, parasite or virus in culture; details: Escherichia coli; PNPP colorimetric lab-scale assay; read-out: Inhibition of PhoA Secretion IC50, Lab-Scale
[4] = B. subtilis, S. aureus, E. faecalis, S. pneumoniae, M. abscessus, read-out: Viability of Gram-positive bacteria IC50 (range over species)
[5] = for 80% of strains, selection threshold, Figure 1B, read-out: Bactericidal activity Gram+ IC50

| Structure (SMILES) | IC50 [1] [µM] | IC50 (Enterobacter cloacae) [µM] | IC50 (E. coli BW25113) [µM] | IC50 (E. coli BL21) [µM] | IC50 (Gram-positive bacteria; [4]) [µM] | IC50 (Gram-positive bacteria; [5]) [µM] | IC50 (Proteus vulgaris) [µM] | IC50 (Streptococcus pneumoniae) [µM] | IC50 [2] [µM] | IC50 [3] [µM] |
| --- | --- | --- | --- | --- | --- | --- | --- | --- | --- | --- |
| O=C(/C=C/c1csnn1)c1ccccc1Cl [HSI#01] | 80 to 100 | > 100 | > 100 | > 100 | 7 to 38 | < 28 | 80 to 100 | 77.8 | 14.8 | 12.5 |
| O=C(/C=C/c1csnn1)c1cc(Cl)ccc1Cl [HSI#05] | > 100 | > 100 | > 100 | > 100 | 7 to 38 | < 28 | > 100 | 29.7 | 4.1 | 7 |
| O=C(/C=C/c1csnn1)c1cccc2ccccc12 [HSI#10] | > 100 | > 100 | > 100 | > 100 | 7 to 38 | < 28 | > 100 | 60.9 | 7.8 | 19.6 |
